Experimental data taken from patent publication EP0230023B1, “Pharmaceutical compositions for the enhancement of wound healing” (MARION MERRELL DOW INC., priority 1985, dated 1987).

Legend:
granulation tissue [1] = test: Subcutaneous Ivalon sponge implantation, histological analysis of granulation tissue formation; format: in vivo, Sprague-Dawley rats; conditions: score on the 0-4 scale; tested in a similar manner to collagen/sucrose octasulfate; potassium salts
Procedure: By means of subcutaneous implantation of Ivalon sponges the phase of granulation tissue formation in the repair process can be evaluated. Following a vigorous cleanup procedure the sponge material evokes only minimal inflammatory response. Sterile sponges prepared as set forth in Example 12 were injected with a 50 µl suspension of collagen/sucrose octasulfate suspension prepared as in Example 12. […] The sponges were surgically implanted into 350-500 g, male Sprague-Dawley rats. Before the implantation procedure three rats were anesthetized and their dorsal surfaces shaved and wiped with Predodyne (West Chemical Products, Lynbrook, N.Y.). Six 6 mm incisions were cut in groups of two (one on each side of the vertebral column rostrally, centrally and caudally), spaced equi-distant from each other between the pectoral and pelvic girdles on the dorsal surface. At each incision a pocket was made between the panniculus carnosus and the dermis and two sponges inserted into it, one rostrally and the other caudally; a total of 12 sponges were thus implanted in each animal. The position of each test preparation was alternated between the rostral, central and caudal positions to control the variation due to anatomical location. The incisions were closed with 11-mm Michel wound clips (Propper, Long Island City, N.Y.). Seven days following implantation the animals were sacrificed and the sponges surgically removed with their adhered connective tissue capsules. Controls, sponges injected with either PBS or collagen only were treated in a similar manner. In all, approximately 120 sponges per group were used in the study and randomly selected for biochemical and histologic analysis. The sponges were fixed in formalin and embedded in either plastic or Paraplast following dehydration. Sections were stained with hemotocylin and eosin, trichrome, silver or PAS. […] Mesenchymal cell infiltration was also scored on a predetermined scale from 0-4. […] Although the whole sponge area was used for analysis we noted that the most striking differences between the various treatments were evident in the center of the sponge. Therefore, the histologic appearance of the central zone was selected for presentation.

granulation tissue [2] = test: as above; format: in vivo, Sprague-Dawley rats; conditions: no collagen
bone fracture = test: Repair of bone fractures (fractured ulna, loss of minerals on decalcification, histology); format: in vivo, guinea pigs; conditions: for after decalcification / before decalcification: ten days after surgery
Procedure: The ulnae of 18 guinea pigs were exposed surgically and then fractured at the midshaft, using a very fine dental burr as a saw. The intact radius served as an immobilization splint. The animals were divided into six groups, three in each, according to the treatment at the fracture site, which was as follows: • Group 1. Untreated controls • Group 2. Sucrose octasulfate 1.0 mg/ml instilled at the fracture site with a syringe • Group 3. Sucrose octasulfate 4.0 mg/ml • Group 4. Collagen (a native 0.25% neutral salt solution) • Group 5. Collagen plus sucrose octasulfate 1.0 mg/ml • Group 6. Collagen plus sucrose octasulfate 4.0 mg/ml
The animals were sacrified ten days after surgery, and the fractured bones were dissected and processed for both histologic and biochemical analyses.

fibroblasts = test: Cell migration assay (Boyden chamber); format: cell-based; design: Chemokinesis: scale not given here
Procedure: Stimulation of directed movement of fibroblasts was assayed as described by Banda M.J., Knighton D.R., Hunt T.K., Werb A., Isolation of a nonmitogenic angiogenesis factor from wound fluid, Proc. Natl. Acad. Sci. 79:7773-7777, 1982. Briefly, solutions of sucrose octasulfate in PBS in concentrations resulting in final concentrations ranging from 10 -² to 10 -⁷ g/ml diluted to a final volume of 300 µℓ in DMEM supplemented with 10 percent rabbit platelet-poor plasma serum were placed in the bottom of Boyden blind-well chambers. Polylysine-coated, 5 µ -pore diameter, polycarbonate filters (Nucleopore) were placed over the test solution and 1.75-3.0 x 10⁶ fibroblasts suspended in DMEM added to the top compartment. The chambers were incubated for two and a half hours at 37 °C,
At the end of incubation of the top filter was fixed, stained and evaluated by counting the number of cells that had migrated to the bottom side of the filter. For each experiment five random fields per filter and at least 15 filters per each concentration of sucrose octasulfate were conducted. […]

pressure ulcer = test: Clinical double-blind dose-response trial in pressure ulcers; format: in vivo, patients; conditions: for Results: twice daily
Procedure: Five patients were subjected to a dose-response trial using sucrose octasulfate in water. The test was a double-blind trial with four treatment arms, 0.1, 1.0, or 10mg/ml or placebo (sterile water for irrigation). Patients were entered following debridement of the study pressure ulcer and a gauze sponge was saturated with sucrose octasulfate solution (i.e. sucrose octasulfate in sterile water vehicle) or placebo and packed into the ulcer crater, then covered with biobrane dressing to keep the area moist. Treatments were applied twice daily for a 30 day interval for four patients and for three weeks for the fifth patient.
The patient population was bedridden comatose adults with chronic ulcers having failed with some form of previous treatment(s). The patients were kept on the same ward as they had been during months prior to the trials so nursing care was uniform prior to and during the study. Thus, any response is favourable. The first four cases are nearly uniform in that three of four treatment ulcers were trochanteric.

[3] = sucrose octasulfate 1 mg/ml at fracture site
[4] = sucrose octasulfate 4 mg/ml at fracture site

O=S(=O)([O-])OC[C@H]1O[C@@](COS(=O)(=O)[O-])(O[C@H]2O[C@H](COS(=O)(=O)[O-])[C@@H](OS(=O)(=O)[O-])[C@H](OS(=O)(=O)[O-])[C@H]2OS(=O)(=O)[O-])[C@@H](OS(=O)(=O)[O-])[C@@H]1OS(=O)(=O)[O-].[K+].[K+].[K+].[K+].[K+].[K+].[K+].[K+] [Sucrose Octasulfate, potassium sucrose octasulfate]
Sponge (granulation tissue [1]): 4 | hemorrhage in sponge (granulation tissue [2]; 10.0 mg/ml sucrose octasulfate in Hydron): local hemorrhage | histologic appearance of sponge (granulation tissue) (granulation tissue [2]; 50 µl of Hydron containing either 1.0 mg/ml or 0.1 mg/ml sucrose octasulfate): formation of granulation tissue densely populated with fibroblasts and highly vascularized with new capillary growth | after decalcification (bone fracture; [3]): 2.20 | before decalcification (bone fracture; [3]): 7.00 | decrease (bone fracture; sucrose octasulfate 1 mg/ml, loss of minerals following decalcification): 4.80 mg | decrease (bone fracture; sucrose octasulfate 1 mg/ml, percent loss of minerals following decalcification): 68.6% | after decalcification (bone fracture; [4]): 2.60 | before decalcification (bone fracture; [4]): 5.90 | decrease (bone fracture; sucrose octasulfate 4 mg/ml, loss of minerals following decalcification): 3.30 mg | decrease (bone fracture; sucrose octasulfate 4 mg/ml, percent loss of minerals following decalcification): 55.9% | Chemokinesis (fibroblasts; score, Boyden chamber, scale not defined, potassium salts): 4 | Migrated fibroblasts, fold increase over negative control (fibroblasts; sucrose octasulfate 10⁻² g/ml, 2.5 hours at 37 °C): 0.4 fold increase over negative control | Migrated fibroblasts, fold increase over negative control (fibroblasts; sucrose octasulfate 10⁻³ g/ml): 0.4 fold increase over negative control | Migrated fibroblasts, fold increase over negative control (fibroblasts; sucrose octasulfate 10⁻⁴ g/ml): 0.6 fold increase over negative control | Migrated fibroblasts, fold increase over negative control (fibroblasts; sucrose octasulfate 10⁻⁵ g/ml): 2.2 fold increase over negative control | Migrated fibroblasts, fold increase over negative control (fibroblasts; sucrose octasulfate 10⁻⁶ g/ml): 2.1 fold increase over negative control | Migrated fibroblasts, fold increase over negative control (fibroblasts; sucrose octasulfate 10⁻⁷ g/ml): 1.1 fold increase over negative control | Depth (prestudy) (pressure ulcer; Patient 001, 10 mg/ml): 0.5 cm | Results (pressure ulcer; Patient 001, 10 mg/ml in water, 30 days): no reduction in ulcer depth | Depth (after treatment) (pressure ulcer; Patient 001, 10 mg/ml, 30 days): 0.5 cm | Depth (prestudy) (pressure ulcer; Patient 002, 1 mg/ml): 3.0 cm | Results (pressure ulcer; Patient 002, 1 mg/ml in water, 30 days): reduction in ulcer depth | Depth (after treatment) (pressure ulcer; Patient 002, 1 mg/ml, 30 days): 1.5 cm | Depth (prestudy) (pressure ulcer; Patient 003, 0.1 mg/ml): 0.5 cm | Results (pressure ulcer; Patient 003, 0.1 mg/ml in water, 30 days): some reduction in ulcer depth | Depth (after treatment) (pressure ulcer; Patient 003, 0.1 mg/ml, 30 days): 0.3 cm | Depth (prestudy) (pressure ulcer; Patient 005, 10 mg/ml): 2.8 cm | Results (pressure ulcer; Patient 005, 10 mg/ml in water, three weeks): reduction in ulcer depth | Depth (after treatment) (pressure ulcer; Patient 005, 10 mg/ml, after 3 weeks of treatment): 1.6 cm
